Data as given in US10350262B2, “MCJ agonists and uses therefor” (priority 2015, dated 2019).
Non-standard residues stand in square brackets, D forms with d. No end group written: not given here. Cha = N[C@@H](CC1CCCCC1)C(=O)O

Tests used:
[1] = test system: Molm13 cells; test: Viable cell number of Molm13 AML cells; format: cell-based; details: 3 days
[2] = test system: MCF7/siMCJ cells; test: Confocal microscopy for doxorubicin accumulation; format: cell-based, human; details: oligomycin 5 μM with doxorubicin 3 μM, 4 h; vs doxorubicin alone
Description: Confocal microscopy for doxorubicin accumulation. MCF7/siMCJ cells were seeded on BD Biocoat coverslips (BD Biosciences, Bedford, Mass.) the day before the treatment. At 20 h, oligomycin (5 μM) or medium was added to the cell. After 3 h, doxorubicin (3 μM) was added and cells were further incubated for 4 h. Cells were washed with PBS and fixed in 3.7% paraformaldehyde. […] For nuclear staining, DAPI (Molecular Probes, Eugene, Oreg.) was used. Cells were visualized by confocal microscopy (Zeiss LSM 510 META Confocal Laser Scanning Imaging System, Carl Ziess Microimaging Inc, Thronwood, N.Y.). The term: MCF7/siMCJ and siMCJ/MCF7 is used interchangeably herein. Experiments were performed to determine whether reducing mitochondrial respiration in cancer cells restores the cells' sensitivity to chemotherapeutic agents. […] MCF7/siMCJ cells were treated with doxorubicin alone or doxorubicin and oligomycin (an inhibitor of Complex V/ATP synthase) at a concentration of 5 μM for 4 h. Doxorubicin intrinsic fluorescence in the cells was viewed by confocal microscopy. The DAPI dye was used as a nuclear maker.

[3] = test system: Molm13 cells; test: Mitochondrial ROS (mROS) by PY1 staining, flow cytometry; format: cell-based; details: 22 h
Description: (§1) FIG. 17A-D provides graphs of results showing MCJ agonist inhibition of AML. FIG. 17A-B show results when Molm13 cells (10^4 cells) were incubated in the presence of medium, TAT-N-MCJ-mts peptide (TAT) (25 μM), MITO-N-MCJ peptide (25 μM), AC220 (2 nM) or the combination of the peptides with AC220. Numbers of viable cells was measured after 3 days. […] The percentage of live cells negative for TMRE (TMREneg) is shown. […] The percentage of live PY1^+ cells is shown.
(§2) Experiments were also performed to assess the effect of MCJ agonists on mitochondrial membrane potential by staining with the TMRE dye. Given the more modest effects observed for TAT-N-MCJ-mts (FIG. 17A-B), 50 μM of this peptide was used in the experiments. […] AML cells are sensitive to the levels of reactive oxygen species (ROS), which are primarily generated in mitochondria as a result of electron leakage from the ETC. It was previously shown that MCJ can interfere with the formation of ETC respiratory supercomplexes [Hatle, K., et al., (2013) Mol Cell boil 33:2302-2314] that are formed to facilitate electron transport between complexes and minimize electron leakage [see Acin-Perez, R. et al., (2008) Mol Cell 32:529-539 and Lapuente-Brun, E. et al., (2013) Science 340:1567-1570]. […] The effect of the MCJ agonists was already observed after 5 h of treatment. […]

[4] = test system: MCF7 cells; test: Viable cell count of MCF7 cells (Trypan blue); format: cell-based, human; details: 25 μM, 2 days
Source text: (§3) FIG. 15A provides results of Western blot analysis for MCJ in MCF7 cells and MCF7/ADR (ADR) cells. Actin was used as loading control. […] Viable cells were counted 2 days later.
(§4) Cell Culture. MCF7 and MCF7/ADR cells were a kind gift from Dr. Ken Cowan (National Cancer Institute, Bethesda, Md.). MCF7/siMCJ cells were generated by stable transfection with a plasmid expressing a shRNA for MCJ (siMCJ) as described in Hatle, K. M., et al., Mol Cell Biol 27, 2952-2966 (2007). All cells were maintained at 37 C, 5% CO2 in RPMI-1640 (Life technologies, Inc., Gaithersburg, Md.) containing 5% FBS.
(§5) Cell count. Cells were trypsinized, washed, and resuspended in medium. Number of viable cells was measured by counting using Trypan blue dye to exclude dead cells (visualized as blue).
(§6) Doxorubicin and peptides treatment in vitro. Doxorubicin (Sigma-Aldrich) was used at 3 μM final concentration. The three different peptides described in the examples (SEQ ID NO: 2, 18 or 6) were resuspended at 10 mM stock concentration in PBS. The peptides were used a different concentration as indicated for each example (1, 10, or 50 μM). Cells were plated the day prior the treatment (18-20 h prior to the treatment). For treatments with peptides only, peptides were added to the plates at the indicated concentrations, and after 2 or 3 days (as indicated for each example) cells were trypsinized, resuspended, and counted. For the treatment with doxorubicin and peptides, cells were pretreated with the corresponding peptide for 4 h prior to adding doxorubicin.
MCF7 cells and MCF7/ADR cells were incubated (using standard procedures) for two days in media alone or in media that included different concentrations of the TAT-N-MCS-MTS polypeptide having the amino acid sequence set forth as: […]

[5] = test system: MCF7/ADR cells; test: Viable cell count of MCF7/ADR cells (Trypan blue); format: cell-based, human
Description: as §3
FIG. 16A-B provides graphs showing response to MCJ agonists. […] Cells were harvested 2 days later and viable cells were counted. […] Mice were harvested at day 4. The size of a tumor over time was determined by caliper measurements, and is represented as a percentage relative to the initial size prior to the treatment. p<0.05 as determined by a paired t-test.
as §4, §5, §6
MCF7/ADR cells were incubated (using standard procedures) for three days in media alone or in media plus three different MCJ based polypeptides each at a concentration of 50 μM in media. The cells of set one were incubated in media and served as a control set. The cells of set two were incubated in media that included a 50 μM concentration of a MCJ polypeptide without a targeting agent polypeptide. The amino acid sequence of the N-MCJ polypeptide without a targeting agent polypeptide was […] (SEQ ID NO:2). The cells of set three were incubated in media that included a 50 μM concentration of a TAT-N-MCJ polypeptide. The amino acid sequence of the TAT-N-MCJ polypeptide was: […] (SEQ ID NO:18). […]

[6] = test system: Molm13 cells; test: Mitochondrial membrane potential by TMRE staining, flow cytometry; format: cell-based; details: 22 h
Description: as §1, §2

[7] = test system: MCF7/ADR cells; test: Seahorse MitoStress assay, oxygen consumption rate (OCR); format: cell-based, human
Description: FIG. 14A-C provides graphs showing effect of MCJ agonist polypeptides on OCR and respiratory capacity of cells. […] Cells pretreated with medium alone (medium), TAT-N-MCJ-mts peptide (TAT peptide) (50 μM) (FIG. 14A) or MITO-N-MCJ peptide (Mito peptide) (25 μM) (FIG. 14B) for the last 9 h prior to the MitoStress assay as described elsewhere herein. Standard flow chart for the treatments as recommended by the manufacturer (Seahorse Bioscience, Billerica, Mass.) was used: oligomycin (O), FCCP (F) and rotenone and antimycin (R+A). […] Oligomycin was replaced by vehicle (buffer) or MITO-N-MCJ peptide.
Human breast cancer cell lines MCF7 cells with siRNA-mediated knockdown of MCJ (MCF7/siMCJ cells) have increased Complex I activity. Experiments were performed to examine the effect of MCJ on mitochondrial respiration using the Seahorse X24 analyzer and the MitoStress assay (used in examples herein according to manufacturer's protocols) that measures mitochondrial oxygen consumption rate (OCR), a well-accepted proxy for mitochondrial respiration (Seahorse Bioscience, North Billerica, Mass.). […] In addition, maximum respiratory capacity (determined after addition of the mitochondrial uncoupler FCCP) was also drastically higher in MCF7/siMCJ cells (FIG. 12A). Moreover, Seahorse MitoStress analysis of OCR in primary mammary tumor cells from MMTV-Py mice [Guy, C.
The agonist polypeptides were tested to determine whether they would restore particular MCJ functions and the effect of the agonist polypeptides in mitochondrial respiration was examined. […] OCR was determined by the Seahorse analyzer in MCF7/ADR cells and MCF7/ADR cells that were pretreated with the TAT-N-MCJ-mts peptide for 9 h.
Assays were performed to examine the effect of MITO-N-MCJ peptide on mitochondrial respiration when added directly on cells ongoing Seahorse mito-stress analysis. In this case, OCR was first measured at the basal level and then either vehicle (Seahorse buffer) or the MITO-N-MCJ peptide was added in one of the ports from Seahorse. […]

[8] = test system: MCF7/ADR cells; test: Bright field microscopy of MCF7/ADR cells; format: cell-based, human; details: 50 μM, two days; relative to medium only
Description: FIG. 3 provides photomicrographic images of MCF7/ADR cells that were incubated for two days in column (1) media alone; column (2) media that included a 50 μM concentration of an N-MCJ polypeptide (SEQ ID NO:2); column (3) media that included a 50 μM concentration of the TAT-N-MCJ polypeptide (SEQ ID NO:18); and column (4) media that included a 50 μM concentration of the TAT-N-MCJ-MTS polypeptide (SEQ ID NO:6).
Bright Field Microscopy. Live cells were imaged at an inverted bright field microscope (Leica Microsystems). 400× magnification was used.

[9] = 25 μM in combination with AC220 2 nM

With `CC(C)(C)c1cc(NC(=O)Nc2ccc(-c3cn4c(n3)sc3cc(OCCN5CCOCC5)ccc34)cc2)no1` [AC220, reference compound] the “viability (number of viable cells)” value ([1]; AC220 2 nM) was “effective at inducing Molm13 cell death”.

For `CC[C@H]1/C=C/C=C/C[C@@H](C)[C@H](O)[C@@](C)(O)C(=O)[C@@H](C)[C@H](O)[C@@H](C)C(=O)[C@@H](C)[C@H](O)[C@@H](C)/C=C/C(=O)O[C@@H]2[C@H](C)[C@H](CC1)O[C@]1(CC[C@H](C)[C@H](C[C@@H](C)O)O1)[C@H]2C` [oligomycin], the “doxorubicin accumulation (intrinsic fluorescence, nucleus)” value [2] was “doxorubicin accumulation (in the nucleus) only in MCF7/siMCJ cells treated with doxorubicin and oligomycin”.

For “FxRFxKFxRFxKMAARGVIAPVGESLRYAEYL ([Cha]R[Cha]K[Cha]R[Cha]KMAARGVIAPVGESLRYAEYL) [MITO-N-MCJ, Fx is cyclohexylalanine]”, the “production of mROS (live PY1+ cells)” value [3, 9] was “clearly synergized with AC220 to cause a massive production of mROS”, the “production of mROS (live PY1+ cells)” value ([3]; 25 μM) was “could induce the production of mROS” and the “viability (number of viable cells)” value ([1]; peptide 25 μM alone) was “profound effect on Molm13 cells, leading to substantial cell death”. The “cells refractory to AC220 (number of viable cells)” value ([1]; peptide 25 μM in combination with AC220 2 nM) was “effectively eliminated this resistant group”, the “effect on viable cells” value [4] was “neither of the two MCJ agonists had an effect on MCF7 cells” and the “expansion of cells (viable cells)” value ([5]; 25 μM, peptide by itself, 2 days) was “drastic effect in limiting the expansion of these resistant cells”. The “efficacy relative to the TAT-N-MCJ peptide” value ([5]; MITO-N-MCJ greater than TAT peptide) was 2-3 times, the “mitochondrial membrane potential (TMRE negative live cells)” value [6, 9] was “the most remarkable effect” and the “mitochondrial membrane potential (TMRE negative live cells)” value ([6]; 25 μM) was “caused a loss of mitochondrial membrane potential (TMRE negative cells) in a fraction of Molm13 cells”. The “effect on OCR” value ([7]; 25 μM, pretreated 9 h, compared with TAT-N-MCJ-mts) was “even more pronounced”, the “mitochondrial respiration (OCR)” value ([7]; peptide added directly during the assay, OCR measured during 180 min, vs vehicle) was “marked reduction of mitochondrial respiration” and the “maximum respiratory capacity (after FCCP)” value ([7]; peptide added directly during the assay, vs vehicle only) was “severely compromised”.

For “MAARGVIAPVGESLRYAEYL (listed as Homo sapiens) [N-MCJ]”, the “proliferation / cells attached to the culture plate (photomicrographs)” value [8] was “did not affect proliferation of the cells”.

With “YGKKRRQRRGMAARGVIAPVGESLRYAEYL [TAT-N-MCJ]” the “proliferation / cells attached to the culture plate (photomicrographs)” value [8] was “did not affect proliferation of the cells” and the “expansion of cells (viable cells)” value ([5]; control peptide lacking the mts) was “had no effect”.
